From patent US20190192521A1, “Methods of Treating Arid1A-Mutated Cancers With HDAC6 Inhibitors and EZH2 Inhibitors” (The Wistar Institute of Anatomy and Biology, priority 2016, published 2019)
Entries after “also recorded” stand apart in the source; their conditions may differ.

Tests used:
[1] = clinical trials for hematopoietic malignancies; Santo et al. Blood 2012; cited from earlier work
[2] = test system: p53 acetylation (lysine 120, 373, 382) in ARID1A-mutated TOV21G cells; assay: immunoblot of p53 acetylation, TOV21G; assay type: cell-based, human; details: 1.25 μM
Experimental: Expression of the indicated proteins was determined by immunoblot. GAPDH expression was used as a loading control.
For immunoblotting, protein was isolated as described in Bitler et al. Nat. Med. 2015, 21, 231-238. Briefly, protein was extracted with RIPA buffer (150 mM NaCl, 1% NP40, 0.5% sodium deoxycholate, 0.1% SDS, 50 mM Tris pH 8.0, and 1 mM PMSF). Protein was separated on a SDS-PAGE and transferred to PVDF membrane. For immunoblot of p53 post-translation modifications, cells were treated with a proteasome inhibitor MG132 (10 μM) to stabilize p53 protein.

[3] = test system: cells with BRG1 knockdown; assay: ACY1215 sensitivity after knockdown of SWI/SNF subunit BRG1; assay type: cell-based
Experimental: Retrovirus production and transduction were performed as described in Aird et al. Cell Reports 2013, 3, 1252-1265, and Bitler et al. Nat. Med. 2015, 21, 231-238. Phoenix cells were used to package the viruses. Lentivirus was packaged using the Virapower Kit from Life Technologies (Carlsbad, Calif.) following the manufacturer's instructions, and as described Aird et al. Cell Reports 2013, 3, 1252-1265, and Bitler et al. Nat. Med. 2015, 21, 231-238. pLKO.1-shARID1As (TRCN0000059090), pLKO.1-shp53 (TRCN0000010814 and TRCN0000003755), pLKO.1-shHDAC6 (TRCN0000004839 and TRCN0000004841), pLKO.1-shCaspase 3 (TRCN0000003550), shCaspase 9 (TRCN0000003583), shCaspase 8 (TRCN0000003577 and TRCN0000003579)and shBRG1 (TRCN0000015549 and TRCN0000015552) were obtained from Open Biosystems. A shRNA to luciferase was used as a control. […] Cells infected with viruses encoding the puromycin resistance gene were selected in 1 μg/ml puromycin.

[4] = test system: ARID1A-mutated OVISE cells; assay: growth inhibition with or without p53 knockdown, OVISE; assay type: cell-based, human
Experimental: Growth inhibition was calculated based on integrated density as measured in NIH ImageJ, and values were normalized to vehicle control. Data is representative of 3 independent experiments. Error bars represent S.E.M. p-value calculated via two-tailed t-test.
Colony formation assays were performed as follows. Cell lines were infected with lentivirus pLKO.1-shRNAs or pLKO.1-control with puromycin selection marker. Infected cells were selected with 1 μg/mL of puromycin for 72 hours and the selected cells were seeded in 12-well or 24-well plates. Cell medium was changed every three days with appropriate drug doses for 14 days or until control wells became confluent. Colonies were washed twice with PBS and fixed with 10% methanol and 10% acetic acid in distilled water. Fixed colonies were stained with 0.005% crystal violet. Integrated density was measured using NIH ImageJ software.

[5] = test system: Arid1a−/−/Pik3caH1047R clear cell ovarian tumours; assay: Arid1a−/−/Pik3caH1047R genetic clear cell ovarian tumour mouse model; assay type: in vivo, mice; details: 50 mg/kg, 21 days
Text: Arid1a−/−/Pik3caH1047R genetic clear cell ovarian tumour mouse model. All experiments were approved by IACUC. Transgenic mice with latent mutations in Arid1a and Pik3ca were generated by crossing Arid1aflox/floxmice (kindly provided by Dr. Wang, U. Michigan and crossed onto a C57BL/6J background for 9 generations) with R26-Pik3caH1047R mice carrying inducible Pik3ca mutations (Jackson Laboratory, Jax #016977). Gao et al, 2008, Proc Natl Acad Sci USA 105, 6656-6661. Administration of intrabursal adeno-Cre, performed as previously reported, Scarlett et al. 2012, J Exp Med 209, 495-506, induce ovarian clear cell carcinoma in ˜45 days, which is similar to a previous report. All mice were maintained in specific pathogen-free barrier facilities. To induce tumorigenesis, 6-10 weeks old Pik3caH1047R/Arid1aflox/flox female mice were intrabursally injected adenovirus-Cre as previously described. Mice were randomized and treated with ACY1215 (50 mg/kg) or vehicle control for 21 days as previously published. Following treatment mice were sacrificed and the reproductive tracts were removed. The changes in volumes of tumours formed on the injected ovary were calculated against the contrary side non-injected ovary from the same mice.

[6] = test system: ARID1A-mutated TOV21G cells; assay: apoptosis and growth inhibition with or without p53 knockdown, TOV21G; assay type: cell-based, human
Experimental: Growth inhibition was calculated based on integrated density as measured in NIH ImageJ, and values were normalized to vehicle control. Data is representative of 3 independent experiments. Error bars represent S.E.M. The p-value was calculated via two-tailed t-test.
FIG. 91 illustrates dose responsive curves of the indicated cells treated with the HDAC6 inhibitor ACY1215; ARID1A wildtype RMG1 and OVCA429 cells were used as controls for comparison; n=4 independent experiments; error bars represent S.E.M. P-value calculated via two-tailed t-test.
FIG. 92 illustrates ARID1A-mutated TOV21G with or without p53 knockdown treated with ACY1215 (1.25 μM) or DMSO controls for 48 hours; percent apoptosis was quantified by FACS analysis based on Annexin V staining; n=3 independent experiments.
FIG. 97 illustrates ARID1A-mutated TOV21G cells with or without endogenous p53 knockdown by a shp53 that targets the 3′ UTR […] region of the human TP53 gene together with a lentivirus encoding a control, wildtype p53 or a p53K12OR mutant—the percentage of surviving cells of the indicated cells treated with ACY1215 was determined by colony formation assay; n=4 independent experiments.
Annexin V and mitochondria membrane potentials were measured as follows. Phosphatidylserine externalization was detected using an Annexin V staining kit (Life Technologies) following the manufacturer's instructions. […]

SMILES: O=C(CCCCCCNC(=O)c1cnc(N(c2ccccc2)c2ccccc2)nc1)NO [rocilinostat, 2-(diphenylamino)-N-(7-(hydroxyamino)-7-oxoheptyl)pyrimidine-5-carboxamide]
- tolerability in clinical studies [1]: well-tolerated without a dose-limiting toxicity; also recorded: well-tolerated and show minimal toxicity
- acetylation status of lysine 373 or 382 residue of p53 [2]: unchanged
- p53K120Ac level [2]: upregulated
- effect of BRG1 knockdown on sensitivity [3]: did not increase
- effect of p53 knockdown on apoptosis and growth inhibition induced by the compound [4]: significantly impaired the apoptosis and growth inhibition
- tumour growth [5]: significantly suppressed the tumour growth
- effect of p53 knockdown on apoptosis and growth inhibition induced by the compound [6]: significantly impaired the apoptosis and growth inhibition
- rescue of p53 knockdown-mediated impairment of compound-induced growth inhibition ([6]; wildtype p53 or p53K120R): wildtype p53 but not the p53K120R mutant rescued
